Assays:
rabbits = experiment: Immunization of rabbits with peptide antigens, antibody titer in sera; format: in vivo, rabbit; conditions: for Post immunization titers: estimated titer of the antibodies in sera from the immunized rabbits; for Before immunization: titer of the antibodies in rabbit sera before immunization
Description: The basic problem in preparation antibody for triplets and PRPC peptides is the size of antigen use for immunization purposes. Triplets by definition are made from three amino acids. Under normal condition such peptides are too small to induce the antibody production. The monospecific antibodies, however, can be made by presenting the antigen in the form of a single amino acid as an annealed antigen. The annealed antigen can be made from the same amino acid. In other approach it is possible to increase the size of antigen by repeating the same motif several times. Formation of the annealing polymer will overcome the difficulties connected with the antigen (peptide) for antibody production.
In order to make annealing it is necessary sometimes, to add to peptide empty (not active immunological) amino acids. The strategy used for production antibodies included both variants and addition of the complete Freund adjuvant. The mono-specific antibodies against various ovine PRPC antigens were prepared on rabbits. The larger animals like sheep, goat, or horse may also be utilized. Two rabbits were selected for each natural antigen.

[1] = system: immobilized gamma globulin (IgG-2); experiment: Adsorption and desorption of ovine PRPC peptides on immobilized IgG-2 column, ELISA titer; format: binding; conditions: for Titer in pool: starting material, ELISA with mono-specific anti peptide antibody; for Desorbs (pH 5.0): titer in material eluted in pH 5.0 buffer; for Not adsorbed: titer in material not adsorbed on immobilized IgG-2 column at neutral pH
Protocol: The ovine PRPC purified as described earlier was applied on immobilized IgG-2 column at neutral pH and eluted in pH 5.0 buffer. The starting materials not adsorbed and eluted materials were tested for the presence of selected peptides by an ELISA method, using mono-specific anti peptide antibody.
Changing the pH 7.0 of the IgG column by the elution buffer of pH 5.0 releases the peptides from the immobilized gamma globulin. Since the interaction between gamma globulin and peptide is not specific, the adsorption and desorption of the peptides from PRPC confirm theory concerning storage facility No II. Furthermore, the finding supports the hypothesis that binding the triplets to macromolecule represents the new mechanism used by host to transport triplets to new cells.

[2] = Scavenger activity in Spin trap Electromagnetic resonance; format: biochemical; conditions: for Scavenger Activity: Spin trap Electromagnetic resonance
Protocol: (§1) The studies leading to discovery the mechanism protecting signals was already described earlier and is repeated here in Table 11. Amino acids QT, V, and DG may serve as an example of PRP protector present in CN V. The identified peptides were synthesized by BIO-[…] Inc. Lewisville Tex. USA. Peptides were purified in to 99% of purity their amino acid sequences were confirmed. The scavengers activity ware tested in Spin trap Electromagnetic resonance and their effect on the amyloid formation was tested on adult Lewis rats exposed to induced hypoxia. […] If small structural changes in carrier peptides lead to activation their biological activity, similar changes may suppress activity or even terminate the signal. This important property is called feed back signal. Similar type of signals ought to operate within PRPC III and PRPC IV network or are coded in CN V. In Table 12 are listed peptides that may be considered as terminating signals.

amyloid formation = experiment: Amyloid formation in adult Lewis rats exposed to induced hypoxia; format: in vivo; conditions: grades 0 to +++++, key not given
Protocol: as §1

| Substance | Post immunization titers (rabbits) | Before immunization (rabbits) | also measured |
| --- | --- | --- | --- |
| DLEMPVLPVEPFPFV (Ovis aries) [SEQ. ID. NO.: 16] | >25,000 | 0 |  |
| LQTPQPLLQVMMEPQGD (Ovis aries) [SEQ. ID. NO.: 1] | 12,800 | 0 | Titer in pool [1]: 5400; Desorbs (pH 5.0) [1]: 3200; Not adsorbed [1]: 800; Scavenger Activity [2]: 11%; Inhibit Amyloid Formation (amyloid formation): 0 |
| SPSLPQNIL [SEQ. ID NO.: 25] |  |  | Free radical scavenger property (in words) [2]: powerful free radicals scavengers |
| VLEMKFPPPPQETVT (Ovis aries) [SEQ. ID. NO.: 3] | 12,800 | 0 |  |
| DQPPDVEKPDLQPFQVQS (Ovis aries) [B-9, ID NO.: 19] |  |  | Titer in pool [1]: 2075; Desorbs (pH 5.0) [1]: >25600; Not adsorbed [1]: 0 |
| LFFFLPVVNVLP (Ovis aries) [SEQ. ID. NO.: 17] | >25,000 | 0 |  |
| SPSLPQNIL [C-2, ID NO.: 25] |  |  | Titer in pool [1]: 5325; Desorbs (pH 5.0) [1]: 12800; Not adsorbed [1]: 0 |
| LSQPKVLPVPQKAVPKPDMPIQ [SEQ. ID NO.: 34] |  |  | Free radical scavenger property (in words) [2]: powerful free radicals scavengers |
| DSQPPV (Ovis aries) [SEQ. ID. NO.: 14] | >25,000 | 0 |  |
| HKEMPFPKYPVEPFTESQ [SEQ. ID NO.: 28] |  |  | Free radical scavenger property (in words) [2]: powerful free radicals scavengers |
| LKPFPKLKVEVFPFP (Ovis aries) [SEQ. ID. NO.: 4] | >25,600 | 0 |  |
| MQPPPLP (Ovis aries) [B-8, ID NO.: 18] |  |  | Titer in pool [1]: 9000; Desorbs (pH 5.0) [1]: 12800; Not adsorbed [1]: 400 |
| MQPPPLP (Ovis aries) [SEQ. ID. NO.: 18] | >25,000 | 0 |  |
| DQPPDVEKPDLQPFQVQS (Ovis aries) [SEQ. ID. NO.: 19] | >25,000 | 0 |  |
| LVYPFTGPIPNSLPQNILP (Ovis aries) [SEQ. ID. NO.: 20] | >25,000 | 0 |  |
| DPPPPQS (Ovis aries) [SEQ. ID. NO.: 6] | 6,400 | 0 |  |
| FPPPK (Ovis aries) [SEQ. ID. NO.: 15] | >25,000 | 0 |  |
| AFLLYQEPVLGPV [SEQ. ID. NO.: 40] | >25,000 | 0 |  |
| VYPFPGPIN [SEQ. ID NO.: 24] |  |  | Free radical scavenger property (in words) [2]: powerful free radicals scavengers |
| SEQP (Ovis aries) [SEQ. ID. NO.: 5] | >25,600 | 0 |  |
| VLEMKFPPPPQETVT (Ovis aries) [A-3, ID NO.: 3] |  |  | Titer in pool [1]: 1350; Desorbs (pH 5.0) [1]: 6400; Not adsorbed [1]: 400 |
| LSQPKVLPVPQKAVPKPDMPIQ [C-11, ID NO.: 34] |  |  | Titer in pool [1]: 15400; Desorbs (pH 5.0) [1]: >25600; Not adsorbed [1]: 400 |
| MPQNFYKLPQM (Ovis aries) [SEQ. ID. NO.: 2] | >25,600 | 0 |  |
| QPLLQVMMEPQ (Ovis aries) [SEQ. ID NO.: 10] |  |  | Scavenger Activity [2]: 75% |
| LPPNVG (Ovis aries) [SEQ. ID. NO.: 12] | >25,000 | 0 |  |
| RGPTPILV |  |  | Free radical scavenger property (in words) [2]: powerful scavenger property |
| AFLLYQEPVLGPV [D-1, ID NO.: 40] |  |  | Titer in pool [1]: 9300; Desorbs (pH 5.0) [1]: 6400; Not adsorbed [1]: 200 |
| SEEMP (Ovis aries) [SEQ. ID. NO.: 13] | >25,000 | 0 |  |
| EMPFPKY (Ovis aries) [SEQ. ID. NO.: 21] | >25,000 | 0 |  |
